target: T1, CGRP receptor (SK-N-MC cell membranes) (Homo sapiens, UniProt O60894+Q16602); assay: CGRP Binding Assay ([125I]-CGRP radioligand binding, SK-N-MC homogenate); details: not given
T1 construct: endogenous in cells; host or cells: SK-N-MC cells (membrane homogenate)
T1 sequence (Q16602 23-461): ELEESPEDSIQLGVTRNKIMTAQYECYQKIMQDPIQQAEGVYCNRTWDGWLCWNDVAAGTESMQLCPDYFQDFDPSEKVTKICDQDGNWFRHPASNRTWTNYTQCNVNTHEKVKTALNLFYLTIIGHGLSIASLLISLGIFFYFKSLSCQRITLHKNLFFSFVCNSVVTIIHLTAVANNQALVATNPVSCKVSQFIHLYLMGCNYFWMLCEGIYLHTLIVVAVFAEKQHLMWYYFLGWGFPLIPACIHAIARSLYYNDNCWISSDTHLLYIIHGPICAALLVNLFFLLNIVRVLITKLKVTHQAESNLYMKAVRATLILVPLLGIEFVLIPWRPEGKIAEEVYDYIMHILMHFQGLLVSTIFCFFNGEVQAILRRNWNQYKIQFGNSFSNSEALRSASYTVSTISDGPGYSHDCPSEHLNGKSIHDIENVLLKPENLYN
T1 sequence (O60894 27-148): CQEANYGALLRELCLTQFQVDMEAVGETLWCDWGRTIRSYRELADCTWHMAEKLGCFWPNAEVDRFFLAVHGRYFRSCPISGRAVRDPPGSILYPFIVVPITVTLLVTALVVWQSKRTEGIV

`O=C(NC(Cc1ccc2[nH]ccc2c1)C(=O)N1CCC2(CC1)OCCO2)N1CCC(n2c(=O)[nH]c3ccccc32)CC1` (racemic) [Example 8, (±)-4-(2-Oxo-2,3-dihydro-benzoimidazol-1-yl)-piperidine-1-carboxylic acid[2-(1,4-dioxa-8-aza-spiro[4.5]dec-8-yl)-1-(1H-indol-5-ylmethyl)-2-oxo-ethyl]-amide] and `O=C1Nc2ccccc2C2(CCN(C(=O)CC(Cc3ccc4[nH]ncc4c3)C(=O)N3CCC4(CC3)OCCO4)CC2)O1` (racemic) [Example 80, (±)-1-(1,4-Dioxa-8-aza-spiro[4.5]dec-8-yl)-2-(1H-indazol-5-ylmethyl)-4-[1′,2′-dihydro-2′-oxospiro-[4H-3′,1-benzoxazine-4,4′-piperidinyl]-butane-1,4-dione] fall in the same range of IC50: 100 to 1000 nM for the first, 100 to 1000 nM for the second.

same assay, conditions: displacement of [125I]-CGRP, SK-N-MC homogenate; read-out: CGRP binding IC50

First: Cc1cc(CC(NC(=O)N2CCC3(CC2)N=C(c2ccccc2)NC3=O)C(=O)N2CCCCC2)cc2cn[nH]c12 (racemic) [Example 35, (±)-4-Oxo-2-phenyl-1,3,8-triaza-spiro[4,5]dec-1-ene-8-carboxylic acid {1-(7-methyl-1H-indazol-5-yl methyl)-2-[1-piperidinylyl]-2-oxo-ethyl}-amide]
Second: Cc1cc(CC(NC(=O)N2CCC3(CC2)CC(=O)Nc2ccccc23)C(=O)N(C)C)cc2cn[nH]c12 (racemic) [Example 33, (±)-[1-Dimethylcarbmoyl-2-(7-methyl-1H-indazol-5-yl)-ethy]1-3′,4′-dihydro-2′-oxospiro-[piperidine-4,4′-(1H)-quinoline]-1-carboxamide]
The IC50 of the first is lower: 10 to 100 nM for the first, 100 to 1000 nM for the second.

First: Cc1cc(CC(CC(=O)N2CCC(N3Cc4ccccc4NC3=O)CC2)C(=O)N2CCOCC2)cc2cn[nH]c12 (racemic) [Example 75, (±)-2-(7-Methyl-1H-indazol-5-ylmethyl)-1-morpholin-4-yl-4-[4-(2-oxo-1,4-dihydro-2H-quinazolin-3-yl)-piperidin-1-yl]-butane-1,4-dione]
Second: Cc1cc(CC(NC(=O)N2CCC(N3Cc4ccccc4NC3=O)CC2)C(=O)O[C@@H](C)c2ccncc2)cc2cn[nH]c12 (stereo partly drawn) [Example 41f, 3-(7-Methyl-1H-indazol-5-yl)-2-{[4-(2-oxo-1,4-dihydro-2H-quinazolin-3-yl)-piperidine-1-carbonyl]-amino}-propionic acid(S)-1-pyridin-4-yl-ethyl ester]
The IC50 of the first is lower: < 10 nM for the first, 10 to 100 nM for the second.

Compared with `CC(C)CN1CCN(C(=O)C(Cc2ccc3[nH]ccc3c2)NC(=O)N2CCC(n3c(=O)[nH]c4ccccc43)CC2)CC1` (racemic) [Example 7, (±)-4-(2-Oxo-2,3-dihydro-benzoimidazol-1-yl)-piperidine-1-carboxylic acid[1-(1H-indol-5-ylmethyl)-2-(4-isobutyl-piperazin-1-yl)-2-oxo-ethyl]-amide], `O=C(NC(Cc1ccc2[nH]ncc2c1)C(=O)N1CCC(N2CCCCC2)CC1)N1CCC(n2c(=O)[nH]c3ccccc32)CC1` (racemic) [Example 4, (±)-4-(2-Oxo-2,3-dihydro-benzoimidazol-1-yl)-piperidine-1-carboxylic acid[2-[1,4′]bipiperidinyl-1′-yl-1-(1H-indazol-5-ylmethyl)-2-oxo-ethyl]-amide] is lower in IC50: 100 to 1000 nM for the first, 10 to 100 nM for the second. The second is the more potent here.

Compared with `CCOc1ccc(NC(=O)N[C@@H](CC(=O)N2CCC(N3Cc4ccccc4NC3=O)CC2)C(=O)N2CCC(N3CCCCC3)CC2)cc1` [Example 189], `O=C(Nc1cccc(F)c1)N[C@@H](CC(=O)N1CCC(N2Cc3ccccc3NC2=O)CC1)C(=O)N1CCC(N2CCCCC2)CC1` [Example 177] is lower in IC50: 100 to 1000 nM for the first, 10 to 100 nM for the second. The second is the more potent here.

First: COc1ccc(Cl)cc1NC(=O)N[C@@H](CC(=O)N1CCC(N2Cc3ccccc3NC2=O)CC1)C(=O)N1CCC(N2CCCCC2)CC1 [Example 187]
Second: COc1ccccc1NC(=O)N[C@@H](CC(=O)N1CCC(N2Cc3ccccc3NC2=O)CC1)C(=O)N1CCC(N2CCCCC2)CC1 [Example 149]
The IC50 of the first is higher: 100 to 1000 nM for the first, 10 to 100 nM for the second.

First: O=C(Nc1ccccc1OC(F)(F)F)N[C@@H](CC(=O)N1CCC(N2Cc3ccccc3NC2=O)CC1)C(=O)N1CCC(N2CCCCC2)CC1 [Example 200]
Second: Cc1ccc(F)cc1NC(=O)N[C@@H](CC(=O)N1CCC(N2Cc3ccccc3NC2=O)CC1)C(=O)N1CCC(N2CCCCC2)CC1 [Example 195]
The IC50 of the first is lower: 10 to 100 nM for the first, 100 to 1000 nM for the second. The first is the more potent here.

First: O=C(NC(Cc1ccc(OCc2ccccc2)nc1)C(=O)N1CCC(N2CCCCC2)CC1)N1CCC(N2Cc3ccccc3NC2=O)CC1 (racemic) [Example 59, (±)-4-(2-Oxo-1,4-dihydro-2H-quinazolin-3-yl)-piperidine-1-carboxylic acid[1-(6-benzyloxy-pyridin-3-ylmethyl)-2-[1,4′]bipiperidinyl-1′-yl-2-oxo-ethyl]-amide]
Second: O=C1Cc2cc(C[C@@H](NC(=O)N3CCC(N4Cc5ccccc5NC4=O)CC3)C(=O)N3CCC(N4CCCCC4)CC3)ccc2N1 [Example 50, (R)-4-(2-Oxo-1,4-dihydro-2H-quinazolin-3-yl)-piperidine-1-carboxylic acid[2-[1,4′]bipiperidinyl-1′-yl-2-oxo-1-(2-oxo-2,3-dihydro-1H-indol-5-ylmethyl)-ethyl]-amide]
The IC50 of the first is higher: 100 to 1000 nM for the first, < 10 nM for the second.

`O=C(N[C@@H](CC(=O)N1CCC(N2Cc3ccccc3NC2=O)CC1)C(=O)N1CCC(N2CCCCC2)CC1)c1ccccc1` [Example 110] and `O=C(N[C@@H](CC(=O)N1CCC(N2Cc3ccccc3NC2=O)CC1)C(=O)N1CCC(N2CCCCC2)CC1)c1cccc(F)c1` [Example 105] fall in the same range of IC50: 100 to 1000 nM for the first, 100 to 1000 nM for the second.

`COC(=O)[C@H](Cc1ccccc1)NC(=O)N[C@@H](CC(=O)N1CCC(N2Cc3ccccc3NC2=O)CC1)C(=O)N1CCC(N2CCCCC2)CC1` [Example 166] and `O=C(Nc1ccc(-c2ccccc2)cc1)N[C@@H](CC(=O)N1CCC(N2Cc3ccccc3NC2=O)CC1)C(=O)N1CCC(N2CCCCC2)CC1` [Example 144] fall in the same range of IC50: 100 to 1000 nM for the first, 100 to 1000 nM for the second.

First: Cc1cc(CC(NC(=O)N2CCC3(CC2)OC(=O)Nc2ccccc23)C(=O)NC2C3CC4CC(C3)CC2C4)cc2cn[nH]c12 (racemic) [Example 28, (±)-[1-(2-adamantyl-carbamoyl)-2-(7-methyl-1H-indazol-5-yl)-ethyl]-1′,2′-dihydro-2′-oxospiro-[4H-3′,1-benzoxazine-4,4′-piperidine]-1-carboxamide]
Second: CN(C)/C=C/CN1CCN(C(=O)C(Cc2ccc3[nH]ncc3c2)NC(=O)N2CCC(N3Cc4ccccc4NC3=O)CC2)CC1 (stereo not shown) [Example 40h]
The IC50 of the first is lower: 100 to 1000 nM for the first, > 1000 nM for the second.

Compared with `CCC(CN1CCN(C(=O)C(Cc2ccc3[nH]ncc3c2)NC(=O)N2CCC(N3Cc4ccccc4NC3=O)CC2)CC1)C(C)C` (stereo not shown) [Example 40i], `O=C(NC(Cc1ccc2[nH]ncc2c1)C(=O)N1CCN(Cc2ccc[nH]2)CC1)N1CCC(N2Cc3ccccc3NC2=O)CC1` (stereo not shown) [Example 40g] is higher in IC50: 10 to 100 nM for the first, > 1000 nM for the second. The first is the more potent here.

Compared with `O=C(Nc1ccc(F)c(F)c1F)N[C@@H](CC(=O)N1CCC(N2Cc3ccccc3NC2=O)CC1)C(=O)N1CCC(N2CCCCC2)CC1` [Example 168], `O=C(Nc1ccc(F)c(Cl)c1)N[C@@H](CC(=O)N1CCC(N2Cc3ccccc3NC2=O)CC1)C(=O)N1CCC(N2CCCCC2)CC1` [Example 193] is lower in IC50: 100 to 1000 nM for the first, 10 to 100 nM for the second. The second is the more potent here.

`CC(C)(C)OC(=O)N[C@@H](CC(=O)N1CCC(N2Cc3ccccc3NC2=O)CC1)C(=O)N1CCC(N2CCCCC2)CC1` [Example 85, (L)-{1-([1,4′]Bipiperidinyl-1′-carbonyl)-3-oxo-3-[4-(2-oxo-1,4-dihydro-2H-quinazolin-3-yl)-piperidin-1-yl]-propyl}-carbamic acid tert-butyl ester] and `Cc1cc(C)c(NC(=O)N[C@@H](CC(=O)N2CCC(N3Cc4ccccc4NC3=O)CC2)C(=O)N2CCC(N3CCCCC3)CC2)cc1C` [Example 139] fall in the same range of IC50: 100 to 1000 nM for the first, 100 to 1000 nM for the second.

`O=C(N[C@@H](CC(=O)N1CCC(N2Cc3ccccc3NC2=O)CC1)C(=O)N1CCC(N2CCCCC2)CC1)c1cccc([N+](=O)[O-])c1` [Example 113] and `O=C(N[C@@H](CC(=O)N1CCC(N2Cc3ccccc3NC2=O)CC1)C(=O)N1CCC(N2CCCCC2)CC1)c1cc(Cl)cc(Cl)c1` [Example 108] fall in the same range of IC50: 100 to 1000 nM for the first, 100 to 1000 nM for the second.

`O=C(Cc1ccc(Cl)cc1)N[C@@H](CC(=O)N1CCC(N2Cc3ccccc3NC2=O)CC1)C(=O)N1CCC(N2CCCCC2)CC1` [Example 127] and `Cc1c(Cl)cccc1NC(=O)N[C@@H](CC(=O)N1CCC(N2Cc3ccccc3NC2=O)CC1)C(=O)N1CCC(N2CCCCC2)CC1` [Example 192] fall in the same range of IC50: 100 to 1000 nM for the first, 100 to 1000 nM for the second.

`Cc1ccc(C)c(NC(=O)N[C@@H](CC(=O)N2CCC(N3Cc4ccccc4NC3=O)CC2)C(=O)N2CCC(N3CCCCC3)CC2)c1` [Example 157] and `COc1cc(C(=O)N[C@@H](CC(=O)N2CCC(N3Cc4ccccc4NC3=O)CC2)C(=O)N2CCC(N3CCCCC3)CC2)cc(OC)c1OC` [Example 128] fall in the same range of IC50: 100 to 1000 nM for the first, 100 to 1000 nM for the second.

`O=C(NC(Cn1ccc(O)cc1=O)C(=O)N1CCC(N2CCCCC2)CC1)N1CCC(N2Cc3ccccc3NC2=O)CC1` (racemic) [Example 52, (±)-4-(2-Oxo-1,4-dihydro-2H-quinazolin-3-yl)-piperidine-1-carboxylic acid[2-[1,4′]bipiperidinyl-1′-yl-1-(4-hydroxy-2-oxo-2H-pyridin-1-ylmethyl)-2-oxo-ethyl]-amide] was tested, and the IC50 was > 1000 nM.

target: T2, human CGRP receptor (SK-N-MC cells) (Homo sapiens, UniProt O60894+Q16602); assay: Cyclic AMP Assay, functional antagonism of CGRP-induced cyclic AMP formation; assay type: cell-based; details: not given
T2 construct: SK-N-MC cells that endogenously express the human CGRP receptor; endogenous in cells; host or cells: SK-N-MC cells
T2 sequence (Q16602 23-461): as the sequence (Q16602 23-461) above
T2 sequence (O60894 27-148): as the sequence (O60894 27-148) above
Experimental: Functional Antagonism. Antagonism of the compounds of invention was determined by measuring the formation of cyclic AMP (adenosine 3′5′-cyclic monophosphate) in SK-N-MC cells that endogenously express the human CGRP receptor. […] For cyclic AMP measurements SK-N-MC cells were incubated with 0.3 nM CGRP alone or in the presence of various concentrations of the compounds of invention for 30 min at room temperature. […] Cyclic AMP was extracted using the lysis reagent and its concentration was determined by radioimmunoassay using RPA559 cAMP SPA Direct Screening Assay Kit (Amersham Pharmacia Biotech). IC50 values were calculated using Excel fit.

`O=C(NC(Cc1ccc2[nH]ccc2c1)C(=O)N1CCC2(CC1)OCCO2)N1CCC(n2c(=O)[nH]c3ccccc32)CC1` (racemic) [Example 8, (±)-4-(2-Oxo-2,3-dihydro-benzoimidazol-1-yl)-piperidine-1-carboxylic acid[2-(1,4-dioxa-8-aza-spiro[4.5]dec-8-yl)-1-(1H-indol-5-ylmethyl)-2-oxo-ethyl]-amide] was tested, and the IC50 was 100 to 1000 nM.

same assay, conditions: SK-N-MC cells, 0.3 nM CGRP; read-out: cAMP Function IC50

`Cc1cc(CC(NC(=O)N2CCC3(CC2)N=C(c2ccccc2)NC3=O)C(=O)N2CCCCC2)cc2cn[nH]c12` (racemic) [Example 35, (±)-4-Oxo-2-phenyl-1,3,8-triaza-spiro[4,5]dec-1-ene-8-carboxylic acid {1-(7-methyl-1H-indazol-5-yl methyl)-2-[1-piperidinylyl]-2-oxo-ethyl}-amide] and `O=C(NC(Cc1ccc2[nH]ncc2c1)C(=O)N1CCC(N2CCCCC2)CC1)N1CCC(n2c(=O)[nH]c3ccccc32)CC1` (racemic) [Example 4, (±)-4-(2-Oxo-2,3-dihydro-benzoimidazol-1-yl)-piperidine-1-carboxylic acid[2-[1,4′]bipiperidinyl-1′-yl-1-(1H-indazol-5-ylmethyl)-2-oxo-ethyl]-amide] fall in the same range of IC50: 10 to 100 nM for the first, 10 to 100 nM for the second.

First: Cc1cc(CC(CC(=O)N2CCC(N3Cc4ccccc4NC3=O)CC2)C(=O)N2CCOCC2)cc2cn[nH]c12 (racemic) [Example 75, (±)-2-(7-Methyl-1H-indazol-5-ylmethyl)-1-morpholin-4-yl-4-[4-(2-oxo-1,4-dihydro-2H-quinazolin-3-yl)-piperidin-1-yl]-butane-1,4-dione]
Second: CC(C)CN1CCN(C(=O)C(Cc2ccc3[nH]ccc3c2)NC(=O)N2CCC(n3c(=O)[nH]c4ccccc43)CC2)CC1 (racemic) [Example 7, (±)-4-(2-Oxo-2,3-dihydro-benzoimidazol-1-yl)-piperidine-1-carboxylic acid[1-(1H-indol-5-ylmethyl)-2-(4-isobutyl-piperazin-1-yl)-2-oxo-ethyl]-amide]
The IC50 of the first is lower: 10 to 100 nM for the first, 100 to 1000 nM for the second.

— US7842808B2, “Anti-migraine spirocycles” (Bristol-Myers Squibb Company, priority 2002, dated 2010)
